Laboratory results reported in patent publication US9040261B2, “Compounds as L-cystine crystallization inhibitors and uses thereof” (NEW YORK UNIVERSITY, priority 2009, dated 2015).
Structures can show the parent of a compound that is named as a salt.

Experiments:
[1] = Bulk crystallization of L-cystine in the presence of additives (mass yield); conditions: 2 mg/L additive, 0.7 g/L L-cystine (pH 6.8); no additive 80; approximate error ±8%
Protocol: Alternately, the hexagonal crystals can be obtained by crystallization performed near neutral pH (Sa) The hexagonal form was crystallized from a supersaturated L-cystine solution prepared by adding 70 mg of L-cystine to 100 mL of deionized water (3 mM), and heating under reflux at 100° C. for 20 min with stirring to completely dissolve L-cystine. […] This concentration was used for bulk crystallization studies in the presence of additives so that a measurable amount of bulk crystals could be obtained in a reasonable time. The solution was then allowed to cool slowly with stirring for 75 min. 30 mL aliquots were transferred to separate glass containers, which were then sealed to prevent evaporation and exposure to airborne particulates and stored for 72 hours at room temperature without stirring. […] The crystals retrieved in this manner were used for AFM studies by mounting individual crystals according to the procedure described below.
Various proteins, poly-amino acids, and molecular mimics of L-cystine were examined as additives. The aforementioned procedure for hexagonal platelet crystallization was repeated. Following the 75 min cooling period, prior to any observable crystallization, the additive was added to the supersaturated L-cystine solution to the desired concentration. […] Crystallization without additive was performed in an identical manner for comparison using a control solution from the same batch. The mass yields of L-cystine crystals were obtained by dividing the mass of L-cystine crystals (collected from growth solution by filtration) by the mass of L-cystine added in the growth solution.
Additives chosen for these studies were various proteins, poly-amino acids, and molecular mimics of L-cystine (see Table 1). The above procedure for hexagonal platelet crystallization was repeated until completion of the 75 min cooling period, at which point 29.5 g of solution was transferred to a 100 mL beaker containing 0.5 g of separately prepared additive solution to yield net concentrations of 2 mg/L additive and 0.7 g/L L-cystine. Additive solutions were replaced with deionized water of equivalent volume for control measurements. […]
L-cystine bulk crystallization was investigated in the presence of various polymers, urinary constituents, fish antifreeze proteins (AFPs), and L-cystine derivatives (i.e. structural mimics of L-cystine), which were analyzed as possible growth inhibitors of hexagonal L-cystine. The potency of each additive was assessed by comparing the difference in crystal yield (Table 1), which is equal to the mass of crystals formed in the presence of 2 mg/L additive (isolated with […]) divided by the total mass of L-cystine (700 mg/L).

[2] = Real time in situ AFM step velocity measurements, static conditions; conditions: 5 g/L cystamine
Protocol: A Digital Instruments (Santa Barbara, Calif.) Nanoscope IIIa Multimode system was used for topographical and lattice imaging. All measurements were performed in contact mode using Veeco NP_B Si3N4 cantilever tips with a spring constant of 0.12N/m (triangular, 196 μm length, 41 μm width) on a glass cantilever holder, and a liquid cell was created for in situ step velocity measurements. All L-cystine crystals for AFM measurements were prepared by method 1. Crystals were transferred onto an AFM specimen disk coated with partially cured (1 hr) UV-curable optical cement (Type SK-9, EMS Acquisition Corp.) by gently pressing the disk against hexagonal platelets or L-cystine needles isolated by filtration (Whatman Nuclepore membrane, 8 μm). The (0001) face of hexagonal platelets was exposed normal to the disk for AFM analysis with growth occurring along equivalent {1010} faces in the lateral directions, while the sides of L-cystine needles were exposed normal to the disc. The partially cured polymer with adhered crystals was completely cured by additional UV radiation (2 hrs) prior to analysis. Measurements of individual step heights for hexagonal L-cystine crystals were acquired in air (contact mode) at a scan rate of 1.00 Hz and 256 samples per line over a 15×15 μm^2 surface area. Integral and proportional gains were set to the highest possible values without obtaining feedback. Four hexagonal crystals (5 areas per crystal) were analyzed for statistical step height distributions, which were calculated from >10^3 individual steps. Lattice-resolved images of crystal surfaces were acquired in water (contact mode) using a scan rate of 112 Hz over a 12×12 nm^2 area.
Real time in situ step velocity measurements of L-cystine growth were assessed along six structurally-equivalent {1010} faces of the hexagonal structure. A liquid cell was created with the glass cantilever tip holder, and working solutions were injected through a 1-mL syringe. Prior to injecting the growth medium (i.e. supersaturated L-cystine solution), crystals were etched with deionized water in the fluid cell for one hour to remove amorphous deposits or impurities that may be present on the surface. Supersaturated solutions (0.5 g/L) were generated by adding L-cystine to deionized water, boiling the solution on a heating mantle for 20 min to completely dissolve the solute, and allowing the solution to cool for 20 min on the heating mantle before transferring the solution (via syringe) to the AFM fluid cell. […]
The effect of additives on crystal growth rates was investigated. […] For each measurement, growth was first assessed in the absence of additive, then in the presence of additive on the identical area of the crystal surface to analyze relative changes in step velocity. […]

[3] = pH 7, 25° C.; cited from earlier work

Structure (SMILES): NCCSSCCN [Cystamine, cystamine dihydrochloride, reference compound]
- Yield (%) = (collected mass by filtration, >11 μm)/(total mass added) × 100% [1]: 30%
- reduction of step velocity relative to the control [2]: 36%
- Step velocity ([2]; 0.5 g/L L-cystine, 25° C., static, without additive ~29 nm/min, independent of step height): 18 ± 3 nm/min

Structure (SMILES): N[C@@H](CSSC[C@H](N)C(=O)O)C(=O)O [L-cystine]
- solubility of L-cystine in water [3]: 400 to 700 µM
